# Experimental data as given in paper PMC2245808, “Persistence of duplicated PAC1 receptors in the teleost, Sparus auratus” (BMC Evolutionary Biology, 2007).
# How the values were obtained:
# [1] = test system: PAC1; conditions: human PAC1; ref [18],[19]; cited from earlier work
# Description: In vertebrates, activation of PAC1/VPAC receptors occurs via three intracellular transduction mechanisms. These involve either cyclic AMP (cAMP) production, IP turnover via PLC or/and calcium mobilization as a consequence of the activation of a G-protein complex. In mammals, five PAC1 isoforms, which result from the insertion of one or two, 28 (hip or hop1 variant) or ...
# [2] = test system: endogenous receptors in Hek293; test: Negative control: Hek293 cells transfected with pcDNA3 without insert; type: cell-based; conditions: maximum concentration of test peptide (10^-6 M)
# Description: The sbPAC1A and sbPAC1B were successfully expressed in Cos7 and Hek293 cell lines as confirmed by immunofluorescence and Western blot analysis. Cos7 cell extracts subject to Western blot contained a specific immunoreactive fusion protein of approximately 52 kDa in transfected cells, which corresponds to the estimated molecular weight in silico of the fusion proteins, (T7PAC1A is 52.75 kDa and T7PAC1B is 52.32 kDa). […] For this reason only the results obtained with transfected Cos7 cells are presented.
# Ligand binding studies were performed two days after transfections, in three independent experiments. […]
# (§1) The quantification of cAMP produced was determined by radioimmunoassay using the TRK432 kit (GE Healthcare, UK) following the manufacturer's instructions. […] The concentration of cAMP produced (pmol/well) was determined in duplicate for each sample and calculations performed based on a linear regression curve constructed using standard concentrations of labelled (^3H) cAMP. […] Data was analyzed by comparing the potency profile of each sbPAC1 receptor in the presence of different concentrations of test peptides and by comparing the potency profile of both receptors in the presence of identical peptide concentrations. […]
# [3] = test system: sbPAC1A; test: cAMP production in Cos7 cells expressing sbPAC1A (RIA); type: cell-based, sea bream (Sparus auratus); conditions: for LOGEC50 for cAMP production: 10^-6 to 10^-11M peptide, cAMP by radioimmunoassay (TRK432), mean ± SEM of three independent experiments in duplicate, log value with negative sign
# Protocol: (§2) Specific primers for each sbPAC1 gene were designed to amplify the mature receptor sequence (Table 2) and were cloned into pcDNA3 vector (Invitrogen, UK) containing a signal peptide of CD33 and a T7-epitope tag (CD33-T7-pcDNA3, [66]). In order to facilitate cloning, restriction digestion sites for BglII and EcoRI enzymes were incorporated in the forward and reverse primers respectively. Template amplification was carried out using the thermocyle; 95°C for 2 minutes; 35 cycles of (95°C for 1 minute, 68°C for 1 minute and 70°C 2 minutes); 72°C for 10 minutes with a proof-reading Pfu DNA polymerase (Promega, Spain) in a 25 μl reaction volume containing 1 × PCR buffer (Promega, Spain), 1,5 mM MgCl2 (Promega, Spain), 0,2 mM dNTPs (Amersham), […] of each primer and 1,5 U Pfu DNA polymerase (3 U/μl)) and DNase Free water (Sigma-Aldrich, Spain). The amplified PCR products were cloned into pGEMT-easy vector (Promega, Spain), sequenced and subcloned into CD33-T7-pcDNA3 vector in frame with the T7-epitope tag. The recombinant constructs produced (CD33-T7-pcDNA3+sbPAC1A and CD33-T7-pcDNA3+sbPAC1B) were sequenced and used to transfect mammalian Cos7 and Hek293 cells lines. The CD86 (NM_175862) membrane protein of the immunoglobulin superfamily cloned in CD33-T7-pcDNA3 expression vector was used as positive control for cell transfection (de Vet et al., 2001).
# (§3) Mammalian Cos7 and Hek293 cell lines were transfected using the Effectene transfection kit (Qiagen, Germany) and the success of transfection was assessed by western blot and immunofluorescence assays using antisera raised against the T7-epitope tag protein [66]. One day prior to transfection, approximately 60,000 to 70,000 Cos7 and Hek293 cells were seeded and transfections carried out using approximately 0.4 μg of recombinant construct (pcDNA3+sbPAC1A or B) and cells were grown for 2 days at 37°C. The viability of transfected cells was determined by dye exclusion using Trypan blue (0,4% solution, Sigma) and the success of transfection calculated by fluorescent confocal microscopy using DAPI (4',6-Diamidino-2-phenylindole) and FITC (Fluorescein) staining for Cos7 cells and the FACS (Fluorescence Activated Cell Sorting) method for Hek293 cells. The percentage of cell transfection was estimated to be approximately 30% in both cell lines.
# Ligand binding studies were performed two days after transfections, in three independent experiments. Transfected cells were incubated in duplicate with different concentrations (10^-6 to 10^-11M) of the human VIP, PACAP38 and secretin (SCT) peptides and ovine PACAP27 peptide for 30 minutes (Sigma-Aldrich, Spain). Homologous sea bream peptides are unavailable but their predicted amino acid sequences are 82%, 100%and 92% identical to human VIP, PACAP27 and PACAP38 respectively and important amino acids at N-terminus potential involved in receptor binding are totally conserved (unpublished data). Prior to ligand-binding assays, Cos7 and Hek293 cells were washed 3 times with DMEM medium without fetal calf serum and incubated in a CO2 incubator with 1 mM of IBMX (3-Isobutyl-1-Methylxantine) for 30 minutes. Ligand-binding assays were performed by incubating the cells in fresh medium containing the peptides in the presence of 1 mM IBMX for 30 minutes at 37°C in the CO2 incubator. After incubation, cells were lysed and stored at -80°C until required. Mammalian Cos7 and Hek293 cells transfected with wild type pcDNA3 were used as negative controls which were incubated with the highest tested peptide concentration ([…]). Prior to assays the responsiveness of transfected Cos7 and Hek293 cells was tested by stimulating cAMP production using Forskolin ([…]; Sigma-Aldrich).
# The quantification of cAMP produced was determined by radioimmunoassay using the TRK432 kit (GE Healthcare, UK) following the manufacturer's instructions. Cos7 and Hek293 cells were lysed by sonication, centrifuged and the supernatant heat denatured for 10 minutes at 100°C. […]
# [4] = test system: Hek293 cell lines expressing the recombinant vector; test: Forskolin activation of transfected Hek293 cells (cAMP); type: cell-based; conditions: Forskolin 10 mM, 1 mM and 0.1 mM
# Protocol: (§4) Ligand binding studies were performed two days after transfections, in three independent experiments. Transfected cells were incubated in duplicate with different concentrations (10^-6 to 10^-11M) of the human VIP, PACAP38 and secretin (SCT) peptides and ovine PACAP27 peptide for 30 minutes (Sigma-Aldrich, Spain). Homologous sea bream peptides are unavailable but their predicted amino acid sequences are 82%, 100%and 92% identical to human VIP, PACAP27 and PACAP38 respectively and important amino acids at N-terminus potential involved in receptor binding are totally conserved (unpublished data). […]
# as §1
# [5] = test system: Cos7 cell lines expressing the recombinant vector; test: Forskolin activation of transfected Cos7 cells (cAMP); type: cell-based; conditions: Forskolin 10 mM, 1 mM and 0.1 mM
# Protocol: as §4, §1
# [6] = test system: sbPAC1B; test: cAMP production in Cos7 cells expressing sbPAC1B (RIA); type: cell-based, sea bream (Sparus auratus); conditions: for LOGEC50 for maximal cAMP production: 10^-6 to 10^-11M peptide, cAMP by radioimmunoassay (TRK432), mean ± SEM of three independent experiments in duplicate, log value with negative sign
# Protocol: as §2, §3
# Ligand binding studies were performed two days after transfections, in three independent experiments. Transfected cells were incubated in duplicate with different concentrations (10^-6 to 10^-11M) of the human VIP, PACAP38 and secretin (SCT) peptides and ovine PACAP27 peptide for 30 minutes (Sigma-Aldrich, Spain). […]
# The quantification of cAMP produced was determined by radioimmunoassay using the TRK432 kit (GE Healthcare, UK) following the manufacturer's instructions. […]
# [7] = test system: pituitary cells; conditions: compared to GHRH and GnRH for PACAP38; ref [46],[51],[52]; cited from earlier work
# Description: (§5) An intriguing aspect about the sbPAC1 genes is their divergent tissue distribution and this may be the basis of their specific physiological functions and persistence in the genome. Understanding the biological function of receptors is complex as it is not only the availability and concentration of receptors but also of ligands and accessory factors at a given site which will determine receptor preference/activity and ultimately biological function.
# [8] = test system: gastric and pancreatic secretion; conditions: cod; ref [55],[56]; cited from earlier work
# Description: as §5
# [9] = test system: intestine; conditions: tilapia; ref [57]; cited from earlier work
# Description: as §5
# [10] = transfected Cos7 cells, 30 minutes, 37°C, 1 mM IBMX
compound,measurement,setting,value
Pituitary Adenylate Cyclase-Activating Polypeptide [PACAP],binding preference of PAC1,[1],preferentially binds PACAP
same,responsiveness of Hek293 cells transfected with pcDNA3 without insert,[2],responsive
Pituitary Adenylate Cyclase-Activating Polypeptide [PACAP27],stimulation of sbPAC1A compared to sbPAC1B (LOGEC50 values for maximal cAMP production),"[3]; sbPAC1A vs sbPAC1B, P > 0.05",equally stimulated
C=C[C@@]1(C)CC(=O)[C@]2(O)[C@@]3(C)[C@@H](O)CCC(C)(C)[C@@H]3[C@H](O)[C@H](OC(C)=O)[C@@]2(C)O1 [Forskolin],cAMP production with Forskolin,[4],maximal cAMP production
same,cAMP production with Forskolin,[5],maximal cAMP production
secretin [SCT],increase above the basal concentration of cAMP production,"[3]; human SCT, Cos7 cells transformed with sbPAC1A, 30 minutes, 37°C, 1 mM IBMX, data not shown",negligible increase
same,increase above the basal concentration of cAMP production,"[6]; human SCT, Cos7 cells transformed with sbPAC1B, 30 minutes, 37°C, 1 mM IBMX, data not shown",negligible increase
Pituitary Adenylate Cyclase-Activating Polypeptide [PACAP38],effect on fish GH secretion by pituitary cells,[7],more potent stimulatory effect on fish GH secretion by pituitary cells when compared to GHRH and GnRH
same,LOGEC50 for cAMP production,[3]; [10],-8.54 ± 0.18 M
same,LOGEC50 for maximal cAMP production,[6]; [10],-8.92 ± 0.24 M
Vasoactive Intestinal Peptide [VIP],effect on gastric and pancreatic secretion,[8],stimulates gastric and pancreatic secretion
same,effect on fish GH secretion by pituitary cells,[7],little or no effect on GH release
same,effect on ion and water absorption by the intestine,[9],involved in ion and water absorption by the intestine
same,responsiveness of Hek293 cells transfected with pcDNA3 without insert,[2],responsive
same,potency for sbPAC1A compared to sbPAC1B,"[3]; LOGEC50 comparison of sbPAC1A vs sbPAC1B, P < 0.05",significantly more potent for sbPAC1A
same,LOGEC50 for cAMP production,[3]; [10],-7.23 ± 0.20 M
same,stimulation of cAMP production compared with PACAP peptides,"[3]; two way Anova, Holm-Sidak, transfected Cos7 cells, P < 0.05",significantly lower (P < 0.05) than for PACAP peptides
same,LOGEC50 for maximal cAMP production,[6]; [10],-6.57 ± 0.14 M
same,stimulation of cAMP compared with PACAP27 and PACAP38,"[6]; two way Anova, Holm-Sidak, transfected Cos7 cells, P < 0.001",significantly lower than PACAP27 and PACAP38 (P < 0.001)
